From patent US8372879B2, “4-(heterocycloalkyl) benzene-1,3-diol compounds as tyrosinase inhibitors, process for the preparation thereof and use thereof in human medicine and also in cosmetics” (Galderma Research & Development, priority 2008, dated 2013)

What was measured:
[1] = tested on: MNT1 human melanoma cells; test: Melanogenesis inhibition assay (14C-thiouracil incorporation standardized through 3H-leucine); assay type: cell-based; settings: MNT-1, incubation for 24 h, 14C incorporation standardized through 3H incorporation
Method: (§1) The inhibition of melanogenesis is measured in MNT1 human melanoma cells according to a protocol adapted from Reigner et al., Cell Mol Biol (1999) 45: 969-980. The assay is based on the concomitant incorporation of 2 radiolabelled tracers: ^14C-thiouracil is incorporated into the neosynthesized melanin and reflects melanogenesis, whereas ^3H-leucine is incorporated into the proteins and reflects cell viability and, consequently, the toxicity of the compounds tested.
(§2) The MNT1 cells are seeded into 96-well plates in the presence of the test compounds and of the radio-isotopes. After incubation for 24 h at 37° C., the cells are washed and the amount of the 2 radioisotopes is measured. The test compounds are evaluated in terms of dose-response so as to calculate an IC50 for inhibition of melanogenesis on the basis of the ^14C incorporation which is standardized through the ^3H incorporation. An IC50 for cell toxicity is also calculated on the basis of the ^3H incorporation.

[2] = Cell toxicity (3H-leucine incorporation) in melanogenesis assay; assay type: cell-based; settings: human, MNT1 human melanoma cells, incubation for 24 h
Method: as §1, §2

tyrosinase = biological target: T1, tyrosinase (Mus musculus, UniProt P11344); test: Tyrosinase activity inhibition assay (B16F1 cell lysate, L-tyrosine/MBTH, 520 nm); assay type: biochemical, murine; settings: lysate of B16F1 cells, 6 hours of incubation at 37° C.; read-out: Tyrosine hydroxylase/Dopa oxidase IC50
T1 construct: the supernatant obtained constitutes the cell lysate used as tyrosinase source in the enzymatic assay; endogenous in cells; host or cells: B16F1 murine melanoma cells, stimulated with alpha-MSH; detergent/ultrasound lysate supernatant
T1 sequence (P11344 19-533): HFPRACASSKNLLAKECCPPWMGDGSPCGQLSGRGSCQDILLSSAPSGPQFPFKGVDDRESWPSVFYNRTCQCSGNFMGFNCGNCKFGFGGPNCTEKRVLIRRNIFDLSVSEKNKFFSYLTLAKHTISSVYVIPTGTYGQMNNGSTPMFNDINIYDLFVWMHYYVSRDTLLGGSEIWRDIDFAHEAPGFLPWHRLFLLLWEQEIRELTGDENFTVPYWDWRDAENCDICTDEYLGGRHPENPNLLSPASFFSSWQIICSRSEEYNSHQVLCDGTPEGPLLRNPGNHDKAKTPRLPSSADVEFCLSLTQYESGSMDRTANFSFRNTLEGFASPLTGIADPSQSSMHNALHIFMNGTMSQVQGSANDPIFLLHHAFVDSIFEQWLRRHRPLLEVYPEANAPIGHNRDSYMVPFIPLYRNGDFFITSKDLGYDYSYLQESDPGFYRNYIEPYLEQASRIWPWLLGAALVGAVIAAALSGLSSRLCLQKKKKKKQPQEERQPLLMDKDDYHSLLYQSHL
Method: The activity of the inhibitors is measured using a lysate of B16F1 cells (murine melanoma line). In the presence of the L-tyrosine substrate, the tyrosinase present in these cells catalyses the hydroxylation of L-tyrosine to give L-DOPA and then the oxidation of the L-DOPA to give dopaquinone. In the presence of MBTH (3-methyl-2-benzothiazolinone hydrazone), the dopaquinone is trapped so as to form a pink complex which absorbs at 520 nm.
The B16F1 cells are cultured in DMEM medium+10% foetal calf serum+10^−9M α-MSH for 4 days at 37° C. under 7% CO2. They are treated with trypsin, washed in PBS, counted and pelleted. The pellet is taken up at 10^7 cells/ml in lysis buffer (10 mM sodium phosphate, pH 6.8-1% Igepal) and the suspension is treated with ultrasound for 10 seconds. After centrifugation for 30 minutes at 4000 rpm, the supernatant obtained constitutes the cell lysate used as tyrosinase source in the enzymatic assay.
The assays are carried out in duplicate in 384-well plates in a total volume of 50 μl. […]
The plate is incubated at 37° C. and a spectro-photometric reading is carried out at 520 nm after 6 hours of incubation. In order to avoid any possible absorption of the products, the system uses corrected absorbance (absorbance at time 6 h—absorbance at time zero). […]

IC50 [1] [nM]	IC50 (tyrosinase) [nM]	Structure (SMILES)	IC50 at 24 h [2] [nM]
15000	–	CCCCc1ccc(O)cc1O [4-butylresorcinol (Rucinol), 4-butylresorcinol, reference compound]	55000
1000	100	Oc1ccc(C2CCOCC2)c(O)c1 [Compound 1, 4-(tetrahydropyran-4-yl)benzene-1,3-diol]	> 999000
–	400	Oc1ccc(C2CCSCC2)c(O)c1 [Compound 2, 4-(tetrahydrothiopyran-4-yl)benzene-1,3-diol]	–
